A word on the IC50: it is the concentration at which inhibition is half-maximal. As a reminder, the melting point is the temperature, or range, at which the solid turns liquid.

The values that follow come from US7674823B2, “DNA-PK inhibitors” (Cancer Research Technology Limited, priority 2001, dated 2010).

Read-outs that look alike come from different tables or passages of the source.

Data set [1] has as its target T1, Mammalian DNA-PK, isolated from Hela cell nuclear extract (Homo sapiens, UniProt P78527).
T1 construct: Mammalian DNA-PK, isolated from Hela cell nuclear extract; endogenous in cells; host or cells: HeLa cell nuclear extract (purified per Gell and Jackson 1999)
The data set is described as follows: DNA-PK inhibition assay (33P-ATP, filter binding). The class given is biochemical. In a few lines: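 DNA-PK from HeLa nuclear extract preincubated with compound 10 min at 30 °C, then started with 50 μM Na-ATP final, ^33P-γATP and 30mer dsDNA (10 ng/μl), run 45 min at 30 °C.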

The test system of a further data set is HeLa cells. Briefly: Enhancement Ratio: cell growth inhibition (SRB assay) after 2 Gy irradiation. The class given is cell-based. The following applies: inhibitor 25 μM. How it is done: DNA-PK inhibitors were used at a fixed concentration of 25 micromolar. Radiation was delivered by a Faxitron 43855D X-ray system at a dose rate of 1Gy per minute The Enhancement ratio at 2 Gy irradiation was calculated from the formula: [formula] Cell growth was assessed using the sulforhodamine B (SRB) assay (Skehan, P., Storung, R., Scudiero, R., Monks, […]., Kenny, S. and Boyd, M. R. (1990) New calorimetric cytotoxicity assay for anticancer-drug screening. J. Natl. Cancer Inst. 82:1107-1112). 400 HeLa cells were seeded into each well of a flat-bottomed 48-well microtiter plate in a volume of 200 μl and incubated for 6 h at 37° C. […] Cells were allowed to grow for a further 1 h before irradiation or mock irradiation. Cells untreated with DNA-PK inhibitor or unirradiated were used as a control. Cells treated with DNA-PK inhibitor alone were used to assess the growth inhibition by the DNA-PK inhibitor. Cells were left for a further 16 h before replacing the media and allowing the cells to grow for a further 6 days at 37° C. The media was then removed and the cells fixed with 200 μl of ice cold 10% (w/v) trichloroacetic acid. The plates were incubated at 4° C. for 20 minutes and then washed four times with water. Each well of cells was then stained with 200 μl of 0.4% (w/v) SRB in 1% acetic acid for 20 minutes before washing four times with 1% acetic acid. Plates were then dried for 2 h at room temperature. The dye from the stained cells was solubilized by the addition of 100 μl of 10 mM Tris Base into each well. Plates were gently shaken and left at room temperature for 30 minutes before measuring the optical density at 564 nm on a Microquant microtiter plate reader.
In general terms: Sulforhodamine B stains cellular protein and so reports cell mass.

The subject of data set [2] is PI 3-kinase (p110α/p85α). Briefly: PI 3-kinase inhibition assay. The class given is biochemical. The following applies: selectivity ratio from the IC50s for PI 3-kinase and DNA-PK. The source says: (§1) In order to assess the inhibitory action of the compounds against PI 3-kinase in vitro, the following assay was used to determine IC50 values.
(§2) Baculoviral recombinant GST-fused PI 3-kinase (p110α/p85α) was purified from Sf9 insect cells using GSH-sepharose affinity chromatography as described (Wymann, M. T et al., (1996) Wortmannin inactivates phosphoinositide 3-kinase by covalent modification of Lys-802, a residue involved in the phosphate transfer reaction. Mol. Cell Biol. 16:1722-1733). PI 3-kinase (1 μl) was diluted in reaction buffer (89 μl of 50 mM Hepes pH 7.5, 150 mM NaCl, 0.1 mM Sodium Orthovanadate, containing 20 μg of phosphatidylinositol) and varying concentrations of inhibitor compound added. […] Reactions were incubated for a further 20 minutes at 37° C., before quenching with the addition of 400 μl of chloroform/methanol (1:1). Reactions were acidified by the addition of 200 μl of 1M HCl, before separation of the organic and aqueous phases by centrifugation at 10,000 g for 30 seconds. The organic phase was transferred to a fresh tube and washed twice with 150 μl of 1M hydrochloric acid/methanol (1:1), discarding the aqueous phase. The washed reaction product was then placed in a white 96-well plate with 100 μl of scintillation fluid and transferred to a TopCount NXT for scintillation counting. Counts per minute, following a one minute counting time, were recorded for each reaction. The inhibition of PI 3-kinase activity by compounds was calculated as described above for the DNA-PK assay.
(§3) The selectivity was determined by the following equation: […]

Data set [3] addresses T2, ATM protein (Homo sapiens, UniProt Q13315).
T2 construct: ATM protein was immunoprecipitated from HeLa cell nuclear extract; endogenous in cells; host or cells: HeLa cell nuclear extract (immunoprecipitate)
Briefly: ATM inhibition assay (immunoprecipitated ATM, GSTp53N66 substrate). The class given is biochemical. How it is done: (§4) In order to assess the inhibitory action of the compounds against ATM in vitro, the following assay was used to determine IC50 values.
(§5) ATM protein was immunoprecipitated from HeLa cell nuclear extract using rabbit polyclonal antisera raised to the C-terminal ˜500 amino-acid residues of the human ATM protein. The immunoprecipitation was performed according to the methodology described by Banin, S. et al. (1998) Enhanced phosphorylation of p53 by ATM in response to DNA damage. Science 281:1674-1677. 10 μl of immunoprecipitated ATM in Buffer C (50 mM Hepes, pH 7.4, 6 mM MgCl2, 150 mM NaCl, 0.1 mM sodium orthovanadate, 4 mM MnCl2, 0.1 mM dithiothreitol, 10% glycerol) was added to 32.5 μl of buffer C containing 1 μg of the ATM substrate GSTp53N66 in a V-bottomed 96 well polypropylene plate. The GSTp53N66 substrate is the amino terminal 66 amino acid residues of human wild type p53 fused to glutathione S-transferase. ATM phosphorylates p53 on the residue serine 15 (Banin, S. et al. (1998) Enhanced phosphorylation of p53 by ATM in response to DNA damage. Science 281:1674-1677). Varying concentrations of inhibitor were then added. […] After 10 minutes of incubation at 37° C., the reactions were initiated by the addition of 5 μl of 50 μM Na-ATP. After 1 h with shaking at 37° C., 150 μl of phosphate buffered saline (PBS) was added to the reaction and the plate centrifuged at 1500 rpm for 10 minutes. 5 μl of the reaction was then transferred to a 96 well opaque white plate containing 45 μl of PBS to allow the GSTp53N66 substrate to bind to the plate wells. The plate was covered and incubated at room temperature for 1 h with shaking before discarding the contents. The plate wells were washed twice by the addition of PBS prior to the addition of 3% (w/v) bovine serum albumin (BSA) in PBS. The plate was incubated at room temperature for 1 h with shaking before discarding the contents and washing twice with PBS. To the wells, 50 μl of a 1:10,000 dilution of primary phosphoserine-15 antibody (Cell Signaling Technology, #9284L) in 3% BSA/PBS was added to detect the phosphorylation event on the serine 15 residue of p53 elicited by the ATM kinase. After 1 h of incubation at room temperature with shaking, the wells were washed four times with PBS prior to the addition of an anti-rabbit HRP conjugated secondary antibody (Pierce, 31462) with shaking for 1 h at room temperature. The wells were then washed four times with PBS before the addition of chemiluminescence reagent (NEN Renaissance, NEL105). The plate was then shaken briefly, covered with a transparent plate seal and transferred to a TopCount NXT for chemiluminescent counting. Counts per second, following a one second counting time, were recorded for each reaction. The inhibition of ATM activity by compounds was calculated as described above for the DNA-PK assay.
as §3

In data set [4] the test system is ATM protein. The description is as above. The following applies: selectivity ratio from the IC50s for ATM and DNA-PK. The class given is biochemical, human. How it is done: as §4, §5, §3
Data set [5] concerns the target T3, PI 3-kinase (p110α/p85α) (UniProt P32871).
T3 construct: other: GST-fused p110α/p85α
The data set is described as follows: PI 3-kinase inhibition assay. The class given is biochemical. Particulars: GST-fused p110α/p85α.
Description: as §1, §2, §3

Another data set has as its system cells. The following applies: literature; cited from earlier work.
The next data set has as its target PI 3-kinase. Particulars: stated to be the same as for DNA-PK; cited from earlier work.
[6] abbreviates: IC50 of less than about 1 μM and/or % inhibition of more than about 50 at 1 μM, read-out: DNA-PK inhibition IC50 (particular efficacy).
Setting [7] is: concentration at which 50% of the enzyme activity is inhibited, read-out: DNA-PK Inhibition IC50.

T2 sequence (Q13315 whole entry): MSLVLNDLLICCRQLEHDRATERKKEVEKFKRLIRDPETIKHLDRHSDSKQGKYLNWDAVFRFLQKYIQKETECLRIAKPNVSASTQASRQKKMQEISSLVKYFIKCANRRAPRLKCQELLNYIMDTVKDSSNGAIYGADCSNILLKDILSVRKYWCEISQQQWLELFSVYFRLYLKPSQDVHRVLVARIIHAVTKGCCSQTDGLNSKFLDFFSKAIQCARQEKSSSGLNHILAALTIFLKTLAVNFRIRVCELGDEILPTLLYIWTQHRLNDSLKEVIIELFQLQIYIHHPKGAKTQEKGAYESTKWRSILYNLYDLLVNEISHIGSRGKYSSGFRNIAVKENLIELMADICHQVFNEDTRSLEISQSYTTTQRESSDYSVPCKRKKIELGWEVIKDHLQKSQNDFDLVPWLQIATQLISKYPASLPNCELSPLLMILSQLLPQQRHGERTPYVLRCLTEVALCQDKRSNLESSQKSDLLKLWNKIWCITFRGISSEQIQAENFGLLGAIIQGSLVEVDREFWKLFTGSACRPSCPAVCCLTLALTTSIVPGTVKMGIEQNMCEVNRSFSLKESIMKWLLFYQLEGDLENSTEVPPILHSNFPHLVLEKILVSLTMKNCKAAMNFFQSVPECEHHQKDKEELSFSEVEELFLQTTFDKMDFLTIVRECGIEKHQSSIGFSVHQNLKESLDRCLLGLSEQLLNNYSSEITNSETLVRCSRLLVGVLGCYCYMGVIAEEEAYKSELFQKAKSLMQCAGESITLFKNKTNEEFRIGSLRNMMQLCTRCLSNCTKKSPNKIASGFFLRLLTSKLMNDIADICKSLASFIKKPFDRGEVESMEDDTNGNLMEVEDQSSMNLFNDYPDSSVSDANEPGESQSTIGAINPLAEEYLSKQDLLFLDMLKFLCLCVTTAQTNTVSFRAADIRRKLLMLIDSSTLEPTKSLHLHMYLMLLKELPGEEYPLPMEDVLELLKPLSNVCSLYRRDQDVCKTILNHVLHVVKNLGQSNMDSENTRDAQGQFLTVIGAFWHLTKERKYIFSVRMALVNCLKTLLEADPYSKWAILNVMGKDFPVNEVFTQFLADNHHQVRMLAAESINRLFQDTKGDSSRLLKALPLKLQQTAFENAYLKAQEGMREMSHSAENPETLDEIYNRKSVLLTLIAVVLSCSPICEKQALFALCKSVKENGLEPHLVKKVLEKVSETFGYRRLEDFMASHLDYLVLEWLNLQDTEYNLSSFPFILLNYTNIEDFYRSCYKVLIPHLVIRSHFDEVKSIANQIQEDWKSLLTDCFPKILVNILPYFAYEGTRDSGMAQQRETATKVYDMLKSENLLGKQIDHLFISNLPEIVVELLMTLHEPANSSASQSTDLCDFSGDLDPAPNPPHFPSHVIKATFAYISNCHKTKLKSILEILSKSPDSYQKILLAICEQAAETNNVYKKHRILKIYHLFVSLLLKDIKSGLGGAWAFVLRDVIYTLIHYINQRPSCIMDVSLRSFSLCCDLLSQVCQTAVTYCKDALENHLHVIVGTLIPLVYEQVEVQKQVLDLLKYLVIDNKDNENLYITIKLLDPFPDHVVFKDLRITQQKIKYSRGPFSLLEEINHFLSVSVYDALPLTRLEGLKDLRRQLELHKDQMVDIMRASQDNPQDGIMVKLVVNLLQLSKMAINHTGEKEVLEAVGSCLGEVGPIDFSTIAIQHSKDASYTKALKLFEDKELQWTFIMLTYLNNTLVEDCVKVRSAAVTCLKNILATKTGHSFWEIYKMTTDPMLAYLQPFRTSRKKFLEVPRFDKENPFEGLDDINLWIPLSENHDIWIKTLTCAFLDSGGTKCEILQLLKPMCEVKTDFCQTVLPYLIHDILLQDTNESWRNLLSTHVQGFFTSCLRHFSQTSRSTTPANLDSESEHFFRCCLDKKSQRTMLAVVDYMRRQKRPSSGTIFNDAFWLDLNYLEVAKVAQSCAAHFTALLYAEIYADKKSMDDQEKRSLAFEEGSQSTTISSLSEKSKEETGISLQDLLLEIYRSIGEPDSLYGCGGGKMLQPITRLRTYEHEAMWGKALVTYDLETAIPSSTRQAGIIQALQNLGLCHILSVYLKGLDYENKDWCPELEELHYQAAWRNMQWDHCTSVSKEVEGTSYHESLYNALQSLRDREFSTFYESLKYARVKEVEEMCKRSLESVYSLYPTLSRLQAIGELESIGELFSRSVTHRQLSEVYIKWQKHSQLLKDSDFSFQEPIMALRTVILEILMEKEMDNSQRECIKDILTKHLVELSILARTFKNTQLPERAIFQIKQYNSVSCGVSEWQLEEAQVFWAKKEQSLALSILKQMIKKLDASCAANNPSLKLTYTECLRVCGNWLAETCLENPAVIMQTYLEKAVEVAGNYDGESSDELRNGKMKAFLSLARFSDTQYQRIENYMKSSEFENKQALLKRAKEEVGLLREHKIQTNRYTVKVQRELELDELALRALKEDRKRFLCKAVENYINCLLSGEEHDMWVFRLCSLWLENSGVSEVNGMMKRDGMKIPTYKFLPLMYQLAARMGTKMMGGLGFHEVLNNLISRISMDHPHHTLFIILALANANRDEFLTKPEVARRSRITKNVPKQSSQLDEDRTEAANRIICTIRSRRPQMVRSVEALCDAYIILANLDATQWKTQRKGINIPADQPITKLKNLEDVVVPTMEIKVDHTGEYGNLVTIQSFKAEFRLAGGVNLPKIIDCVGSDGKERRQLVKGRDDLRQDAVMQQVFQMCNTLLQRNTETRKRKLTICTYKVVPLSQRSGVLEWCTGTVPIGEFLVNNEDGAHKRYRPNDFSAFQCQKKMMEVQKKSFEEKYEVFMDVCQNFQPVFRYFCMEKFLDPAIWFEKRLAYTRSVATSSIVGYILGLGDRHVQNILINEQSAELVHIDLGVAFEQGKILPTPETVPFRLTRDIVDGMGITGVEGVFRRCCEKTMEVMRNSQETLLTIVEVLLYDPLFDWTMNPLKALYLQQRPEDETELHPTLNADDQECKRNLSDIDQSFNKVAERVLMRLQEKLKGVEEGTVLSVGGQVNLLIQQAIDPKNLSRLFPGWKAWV

As to `O=c1cc(N2CCOCC2)nc2c3ccccc3ccn12` [Compound 5, 2-morpholin-1-yl-pyrimido-[2,1-a]isoquinolin-4-one], the IC50 in [1] (setting [6]) was < 1000 nM; in [1] (setting [7]), 350 nM; against ATM protein [3] it was > 100 µM. The “Enhancement Ratio (ER)” value in the data set with HeLa cells is reported as 1.63. In the data set on PI 3-kinase (p110α/p85α) [2], the “Δ(DNA-PK/PI 3-K)” value is given as >143. For the same compound, in the data set with ATM protein [4], the “Δ(DNA-PK/ATM)” value is reported as >286.

As for `O=c1cc(-c2ccc(F)cc2)oc(N2CCOCC2)c1` [Compound 292, 6-(4-fluorophenyl)-2-(morpholin-4-yl)pyran-4-one], the melting point was 216 to 217 °C. At PI 3-kinase (p110α/p85α) [5], this compound came in with a concentration for half-maximal inhibition (IC50) of 13 µM. Further, in the data set with PI 3-kinase (p110α/p85α) [2], the “Δ(DNA-PK/PI 3-K)” value came out at 52. At ATM protein [3], the IC50 is > 100 µM. For the same compound, the “Δ(DNA-PK/ATM)” value in the data set on ATM protein [4] is >400.

In the case of `O=c1cc(N2CCOCC2)oc2c1ccc1ccccc12` [Compound 293, 2-(morpholin-4-yl)-benzo[h]chromen-4-one], the IC50 was < 1000 nM in [1] (setting [6]), 400 nM in data set [1] (setting [7]), 20 µM at PI 3-kinase (p110α/p85α) [5] and > 100 µM at ATM protein [3]. Further, the “Enhancement Ratio (ER)” value in the data set with HeLa cells is reported as 1.7. In addition, the “Δ(DNA-PK/PI 3-K)” value with PI 3-kinase (p110α/p85α) [2] amounted to 50. Further, the “Δ(DNA-PK/ATM)” value in the data set with ATM protein [4] was >250.

The compound `O=c1cc(N2CCSCC2)oc2c1ccc1ccccc12` [Compound 296, 2-(thiomorpholin-4-yl)-benzo[h]chromen-4-one] returned a melting point of 171 to 173 °C. Besides, the IC50 in data set [1] (setting [7]) amounted to 1200 nM. Besides, it took 6 µM to reach half-maximal inhibition on PI 3-kinase (p110α/p85α) [5] (IC50). Moreover, in the data set with PI 3-kinase (p110α/p85α) [2], the “Δ(DNA-PK/PI 3-K)” value is on record as 5. Besides, the IC50 against ATM protein [3] is > 100 µM. Further, the “Δ(DNA-PK/ATM)” value in the data set on ATM protein [4] was >83.

In the case of `O=c1cc(N2CCOCC2)oc2cc3ccccc3cc12` [Compound 301, 2-(morpholin-4-yl)-benzo[g]chromen-4-one], the melting point was 219 °C. Besides, the half-maximal inhibitory concentration (IC50) in data set [1] (setting [6]) was < 1000 nM. The IC50 in [1] (setting [7]) amounted to 400 nM. The IC50 on PI 3-kinase (p110α/p85α) [5] stood at 16 µM. The “Δ(DNA-PK/PI 3-K)” value in the data set on PI 3-kinase (p110α/p85α) [2] is 40. The IC50 at ATM protein [3] was > 50 µM. In the data set on ATM protein [4], the “Δ(DNA-PK/ATM)” value was >125.

As for `O=c1cc(N2CCOCC2)oc2cc(OCc3ccccc3)ccc12` [Compound 337, 7-Benzyloxy-2-morpholin-4-yl-chromen-4-one], the results for the 50% inhibitory concentration (IC50) (in data set [1] (setting [6]); in data set [1] (setting [7]); on ATM protein [3]) were < 1000 nM, 650 nM and > 100 µM, respectively. The “Enhancement Ratio (ER)” value in the data set on HeLa cells is on record as 1.12. Besides, the “Δ(DNA-PK/ATM)” value in the data set on ATM protein [4] is >154.

On to `O=c1cc(N2CCOCC2)oc2cc(OCc3ccc(F)cc3)ccc12` [Compound 414, 7-(4-Fluoro-benzyloxy)-2-morpholin-4-yl-chromen-4-one], for which the IC50 is 1500 nM in data set [1] (setting [7]), 95 µM against PI 3-kinase (p110α/p85α) [5] and > 100 µM on ATM protein [3]. Besides, the “Enhancement Ratio (ER)” value in the data set on HeLa cells turned out to be 1.69.

On to `O=c1cc(N2CCOCC2)oc2cc(OCc3ccc(Cl)cc3)ccc12` [Compound 415, 7-(4-chlorobenzyloxy)-2-(morpholin-4-yl)-chromen-4-one], for which the half-maximal inhibitory concentration (IC50) is < 1000 nM in [1] (setting [6]), 500 nM in data set [1] (setting [7]), > 100 µM against PI 3-kinase (p110α/p85α) [5] and > 100 µM against ATM protein [3]. The “Enhancement Ratio (ER)” value in the data set with HeLa cells is 1.86. Besides, the “Δ(DNA-PK/PI 3-K)” value in the data set on PI 3-kinase (p110α/p85α) [2] is given as >200. For the same compound, the “Δ(DNA-PK/ATM)” value in the data set with ATM protein [4] is listed as >200.

Take `O=c1cc(N2CCOCC2)oc2cc(OCc3ccc(Br)cc3)ccc12` [Compound 416, 7-(4-Bromobenzyloxy)-2-morpholin-4-yl-chromen-4-one]: the melting point was in the range of 221 to 222 °C. In addition, the IC50 in data set [1] (setting [6]) is < 1000 nM. In addition, in [1] (setting [7]), the half-inhibitory concentration (IC50) was 600 nM. Besides, in the data set on HeLa cells, the “Enhancement Ratio (ER)” value worked out at 1.32. Further, on ATM protein [3], the IC50 is > 100 µM. The “Δ(DNA-PK/ATM)” value in the data set with ATM protein [4] is >167.

Consider `O=c1cc(N2CCOCC2)oc2c(-c3ccccc3)cccc12` [LY294002], for which the “sensitisation of cells to the effects of IR” value with cells is “weakly sensitise”. The IC50 on PI 3-kinase is ~1000 nM.
